Source: patent publication US7211116B2, “Hair dye composition” (Kao Corporation, priority 2001, dated 2007)

Experiment: Measurement of hydrogen peroxide remaining ratio in a virtual hair bleach composition (Cu, ammonia, H2O2; iodometric titration)
Details: 20.0 mg compound, aqueous Cu solution, stirred 10 minutes at 30° C.
Protocol: The first requirement is a remaining ratio of hydrogen peroxide. The remaining ratio of hydrogen peroxide is determined by measuring the remaining amount of hydrogen peroxide in a virtual hair bleach composition after a predetermined time. The remaining ratio exceeding a predetermined value allows existence of hydrogen peroxide which can be used for hair bleaching or dyeing and promotes the hair bleaching action. The remaining ratio below a predetermined value, on the other hand, prevents excessive stabilization of hydrogen peroxide, whereby the oxidizing agent acts to emit adequate —O2H (perhydroxy anion).
The hydrogen peroxide remaining ratio in the present invention is measured in the following manner. Measurement of hydrogen peroxide remaining ratio %: In a 50 mL screw tube are charged 20.0 mg of Compound (A) and 5.98 g of deionized water to dissolve the former in the latter. […] The point when a violet color (bluish violet to reddish violet) disappears completely is designated as a terminal point and hydrogen peroxide % is determined in accordance with the below-described equation. The amount of hydrogen peroxide in an aqueous solution obtained by diluting 10.00 of 2% aqueous hydrogen peroxide with 10.00 g of deionized water is also measured and the hydrogen peroxide amount at this time is taken as a hydrogen peroxide remaining ratio of 100%.

## NCCCN [1,3-Propanediamine]
  Hydrogen peroxide remaining ratio: 19.3%
